Results as given in US9345677B2, “Compositions, methods and kits relating to HER-2 cleavage” (Incyte Corporation, priority 2003, dated 2016).
Values belong to the compound of their own block, whether it stands above or below them.

Assays:
[1] = tested on: BT-474-SC1 tumor xenografts; experiment: Tumor volume in BT-474-SC1 xenograft model; format: in vivo, mice
Method: For the BT-474-SC1 tumor model (see Results below), slow-release estrogen pellets (Innovative Research of America) were inserted subcutaneously (s.c.) into the flank of each mouse 24 hours prior to tumor cell inoculation. Balb/C nude and SCID-bg mice were obtained from Charles River Laboratories. Cells were harvested from their tissue culture plates, counted, centrifuged, and resuspended in serum free growth media and BD Matrigel™ at a 1:1 ratio immediately prior to implantation. In either one or two locations, 1−2×10^7 viable BT-474-SC1 cells were injected s.c. into the upper flank of each mouse. For all models, tumors were measured on a weekly basis and their volumes calculated using the formula [volume=(length×width^2)÷2]. Once the mean tumor volume of the required number of mice reached the desired size (usually >150 mm^3), they were randomized into treatment groups usually containing between 6 and 12 mice. Animals were then treated with compound or vehicle (10% DMAC, 30% propylene glycol) by mini-osmotic pump (Alzet, Cupertino, Calif.) implanted i.p. or s.c. for 7 to 28 days to achieve the desired compound exposure—controlled by altering the pump flow rate and/or the concentration of compound inside the pumps. Tumor size and body weights (a measure of animal health) were monitored weekly. Blood samples were also drawn (retro-orbital) while the osmotic pumps were functional and plasma was separated by centrifugation and stored at −80° C. for later pharmacokinetic and/or ELISA analysis, to determine the levels of circulating Her-2 ECD (described above). Note that in experiments designed to evaluate the effects of compound treatment on levels circulating Her-2 ECD, blood samples were drawn on the day osmostic pumps were implanted (day 0) and then again six days later (day 6).

circulating Her-2 ECD = experiment: Plasma Her-2 ECD ELISA in BT-474-SC1 xenograft mice; format: in vivo
Method: For the BT-474-SC1 tumor model (see Results below), slow-release estrogen pellets (Innovative Research of America) were inserted subcutaneously (s.c.) into the flank of each mouse 24 hours prior to tumor cell inoculation. Balb/C nude and SCID-bg mice were obtained from Charles River Laboratories. Cells were harvested from their tissue culture plates, counted, centrifuged, and resuspended in serum free growth media and BD Matrigel™ at a 1:1 ratio immediately prior to implantation. In either one or two locations, 1−2×10^7 viable BT-474-SC1 cells were injected s.c. into the upper flank of each mouse. For all models, tumors were measured on a weekly basis and their volumes calculated using the formula [volume=(length×width^2)÷2]. Once the mean tumor volume of the required number of mice reached the desired size (usually >150 mm^3), they were randomized into treatment groups usually containing between 6 and 12 mice. […] Tumor size and body weights (a measure of animal health) were monitored weekly. […]
To measure levels of circulating Her-2 ECD in mice, plasmas were isolated from the blood samples described above and analyzed shortly after harvesting or stored frozen at −80° C. until analysis. To assess Her-2 ECD levels, plasma samples were diluted 1:5 and analyzed using a commercially available Her-2 ELISA kit per manufacturer's instructions (Oncogene Research, catalog #QIA10). […]

[2] = tested on: AKT and ERK phosphorylation in BT474 cells; experiment: Western blot of phospho-ERK and phospho-AKT; format: cell-based, human
Method: In experiments to determine the effects of MPI treatment on cell signaling, BT474 cells were plated at 1×10^5 cells/mL in 2 mL of media (RPMI+10% FCS+10 μg/mL insulin) in 12-well plates. […] After 5 days, the cells were harvested, lysed in 200 μL ice-cold lysis buffer containing 10 mM Tris, pH 7.2, 150 mM NaCl, 1% Triton X-100, 1% deoxycholic acid, 0.1% SDS, 50 μg/mL leupeptin, 50 μg/mL aprotinin, 1 mM sodium vanadate, 50 mM sodium fluoride, 1 mM PMSF. After 10 minutes on ice, the samples were microfuged at 13,000 rpm for 10 minutes at 4° C. and the supernatants collected. For analysis, 15 μL of 2× Laemmli sample buffer (BioRad, cat#161-0737) was added to 15 μL of extract, samples boiled for 5 minutes and loaded onto 12-well 12% Tris-Glycine gels (Novex, cat# EC60052). Gels were run in 1× Tris-Glycine-SDS buffer (Gibco BRL) using Novex minigel apparatus for approximately 1.5 hours. Following electrophoresis, proteins were transferred onto PVDF membrane (NEN, cat#NEF1000) in 1× Tris-Glycine buffer (Biorad, cat#161-0734) containing 20% MeOH for 2-3 hours using BioRad miniblot transfer system. After transfer, membranes were blocked in PBS+5% milk+0.1% Tween-20 for 1 h at RT. […]
Phosphorylation of AKT and the MAP kinase ERK were monitored by western blot analysis using phospho-specific antibodies.

[3] = tested on: Her-2 cleavage in SK-BR3 cells; experiment: Western blot of Her-2 ECD (105 kDa) in culture supernatants; format: cell-based, human; conditions: varying concentrations
Her-2 sheddase = experiment: Her-2 ECD ELISA of BT474 culture supernatants (Her-2 sheddase inhibition); format: cell-based, human
Method: (§1) BT474 cells were seeded in 100 μL of RPMI medium containing 10% FCS+10 μg/ml insulin in 96 well plates at 2×10^4 cells/well. The cells were incubated overnight at 37° C. The following morning, the media was removed and 100 μL of fresh media with or without compound was added back. The cells were incubated for about 72 hours at 37° C. After about 72 hours, the supernatants were removed. The samples were diluted 1:10 and analyzed using a commercially available Her-2 ELISA kit per manufacturer's instructions (Oncogene Research, catalog #QIA 10).
These inhibitors were added, at varying concentrations, to cultures of BT474 cells, a Her-2 overexpressing breast cancer cell line known to enzymatically process cell surface Her-2 (p185) and release the extracellular domain (ECD) into the culture supernatant, i.e., shedding of ECD. After 72 hours, cell culture supernatants were harvested and assayed for Her-2 ECD content using an ELISA assay.

[4] = tested on: AKT and ERK phosphorylation in MCF7 cells; experiment: Western blot of phospho-ERK and phospho-AKT; format: cell-based, human; conditions: Her-2 non-overexpressing MCF7 cells
[5] = tested on: Her-2 cleavage in BT-474 cells; experiment: Western blot of Her-2 ECD (105 kDa) in culture supernatants; format: cell-based, human
Method: BT474 cells were seeded in 1 mL of RPMI medium containing 10% FCS+10 μg/ml insulin in 12 well plates at 1×10^5 cells/well. The cells were incubated overnight at 37° C. The following morning, the media was removed and 1 mL of fresh serum-free RPMI media+/− compound was added back. The cells were incubated for 5 days at 37° C. After 5 days, the supernatants were removed. 15 μL of supernatant was added to 15 μL of sample buffer (Novex, catalog #LC2676) and the samples were loaded onto a 4-12% Tris-Glycine gradient gel (Novex, EC6035). The samples were separated for 2 hours at 125 volts. The gels were then transferred onto PVDF membrane (NEN, catalog #NEF-100) at 30 volts overnight in the cold. The following morning, the blots were blocked in 5% milk/PBS/0.05% Tween-20 for 1 hour at room temperature. Her-2 antibody (NeoMarkers, catalog #MS-1350-P1) was diluted 1:200 in 5% milk/PBS/0.05% Tween-20 and incubated with the blots for 2 hours at room temperature. The blots were washed 5 times (10 minutes each wash) in PBS/0.05% Tween-20. An HRP-conjugated goat anti-mouse IgG antibody was diluted 1:2000 and added to the blots for 1 hour at room temperature, The blots were washed 5 times (10 minutes each wash) in PBS/0.05% Tween-20. The blots were then incubated for 5 minutes with SuperSignal West Pico Chemiluminescent substrate (Pierce, catalog #34080) and exposed to film.

[6] = tested on: Her-2 cleavage in a primary breast tumor cell line that over expresses Her-2; experiment: Shed Her-2 ECD in primary breast tumor cell culture; format: cell-based, human; conditions: primary breast tumor cell line over expressing Her-2
Method: Tumor specimens were obtained by Oncotech (Tustin, Calif.) according to their IRB approved protocol using standard procedures known in the art. Cell cultures were maintained in tissue culture flasks. Cells intended for experimental treatment were harvested in log phase with EDTA and were plated at a density of 1×10^5 cells/well in 24-well polystyrene plates in 0.5 ml RPMI with 10% FCS. Experiments to determine the effects of MPIs on shed Her-2 receptor were performed as described below for BT-474 cells.
as §1

SMILES: COC(=O)N1CC2(CC2)C[C@H](C(=O)NO)[C@H]1C(=O)N1CCN(c2ccccc2)CC1 [Compound 2, methyl (6S,7S)-7-[(hydroxyamino)carbonyl]-6-[(4-phenylpiperazin-1-yl)carbonyl]-5-azaspiro[2.5]octane-5-carboxylate]
tumor size on day 6 compared to vehicle ([1]; BT474-SC1 xenograft, p=0.0001): significantly smaller
magnitude of change in tumor volume ([1]; day 6): 27%
partial remission (greater than a 25% reduction in tumor volume) ([1]; day 6): multiple tumors demonstrated a partial remission
level of circulating ECD on day 6 compared to vehicle (circulating Her-2 ECD; BT-474-SC1 tumor bearing mice, osmotic pump, p<0.0001): significantly lower
magnitude of change in ECD (circulating Her-2 ECD; day 6): 56%

SMILES: O=C(NO)[C@H]1CC2(CC2)CN[C@@H]1C(=O)N1CC=C(c2ccccc2)CC1 [Compound 3, (6S,7S)-6-{[4-phenyl-3,6-dihydropyridin-1(2H)-yl]carbonyl}-N-hydroxy-5-azaspiro[2.5]octane-7-carboxamide]
tumor growth over a 28-day period ([1]; BT474-SC1 model, vehicle tumors tripled in size): complete suppression of tumor growth

inhibition of Her-2 cleavage (ECD processing), ELISA (Her-2 sheddase; BT-474 cells, 72 hours): inhibition of Her-2 cleavage
SMILES: COc1ccc(S(=O)(=O)N2Cc3ccccc3C[C@@H]2C(=O)NO)cc1 [Compound 4, (3R)-N-hydroxy-2-((4-methoxyphenyl)sulfonyl)-1,2,3,4-tetrahydroisoquinoline-3-carboxamide]
phosphorylation of both AKT and ERK ([2]; sheddase inhibitor in combination with 0.2 μg/ml Herceptin): detectable reduction in phosphorylation
AKT or ERK phosphorylation, single agent ([2]; sheddase inhibitor less than 5 μM alone or 0.2 μg/ml Herceptin alone): did not demonstrate a detectable effect
inhibition of Her-2 cleavage, Western blot [3]: inhibition of Her-2 cleavage
AKT and MAP kinase pathways [4]: not impacted
inhibition of Her-2 cleavage, Western blot ([5]; MPI alone, varying concentrations): inhibition of Her-2 cleavage
blocking Her-2 cleavage, MPI in combination with Herceptin ([5]; combination with Herceptin): additive effect
inhibition of Her-2 cleavage [6]: inhibition of Her-2 cleavage

IC50 (Her-2 sheddase): 0.02 to 0.1 µM
SMILES: CC1(C)SCCN(S(=O)(=O)c2ccc(Oc3ccncc3)cc2)[C@H]1C(=O)NO [Compound 7, Prinomastat, reference compound]
